How the values were obtained:
[1] = tested on: rats with focal cerebral ischemia-reperfusion injury; experiment: rat focal cerebral ischemia-reperfusion model (internal carotid artery suture method), area of cerebral infarction by TTC staining; type: in vivo, Sprague-Dawley (SD) rats; conditions: for Area of cerebral infarction (%): single i.v. dose after reperfusion, 24 h after ischemia, (+)-2-borneol 1 mg/kg; for area of cerebral infarction of MCAO rats (in words) / neurological deficits of MCAO rats (in words): summary, tail vein, cilostazol 1-18 mg/kg, (+)-2-borneol 0.27-5 mg/kg
Method: After the cerebral ischemia model was established, the animals were assigned to each group in a single-blind manner with equal probability. After reperfusion, the animals were immediately administered intravenously with the drugs once. The animals in the model group were administered with an equal volume of normal saline. The animals were sacrificed 24 hours after cerebral ischemia, and their brains were taken out, stained, and photographed for determining the area of cerebral infarction. The rat focal cerebral ischemia-reperfusion model was established by internal carotid artery suture method. The limbs (hind limbs above the knee joint and forelimbs below the wrist joint) and head of an anesthetized rat were tightened with rubber bands. The animal was fixed on an operating table in supine position, and was shaved with an animal shaver from the head to the chest, and the skin was disinfected with alcohol. The neck of the rat was cut at the midline, and the subcutaneous tissue was bluntly separated. The thin layer of fascia on the surface of the anterior triangle of the neck was separated, the lower side-lower edge of the clavicular hyoid muscle was pulled up, and the longitudinally pulsating artery parallel to this muscle can be seen. The arterial shell was opened, and the bifurcation of the right carotid artery was exposed. The right common carotid artery, external carotid artery and internal carotid artery were separated. The vagus nerve was gently stripped, and the external carotid artery was ligated and cut. The proximal end of the common carotid artery was clamped. An incision was made at the distal end from the ligature of the external carotid artery, and was inserted with a suture line, which was passed through the bifurcation of the common carotid artery into the internal carotid artery, and then was inserted slowly until reaching slight resistance (approximately 20 mm from the bifurcation), so as to block all blood supply to the middle cerebral artery. The suture line was slightly fixed below the incision of the external carotid artery with silk thread. The silk thread clamping the proximal end of the common carotid artery was loosened. A gauze soaked in sterile saline was covered on the wound, and the rat was placed on a heat preservation pad to keep warm. 2.0 h after cerebral ischemia on the right side, the suture line was pulled out gently to restore the blood supply for reperfusion. The external carotid artery was ligated with silk thread fixing the suture line. The skin was stitched, and disinfected. The rats were placed in clean feed, and their general condition and respiration were observed until they woke up from anesthesia. The rats were provided with food and water, and commonly reared. The animals were subjected to evaluation of neurological deficit symptoms and then sacrificed with CO2. The brain was taken out by cutting off head. The olfactory bulb, cerebellum and lower brainstem were removed. The blood on the surface of the brain was washed with normal saline, and the residual water on the surface was removed. The brain was placed at -20° C. for 20 min, then taken out, immediately cut to a coronal section vertically downward at the crossing plane of the line of sight, and sliced backward every 2 mm. The brain slices were incubated in 1% TTC staining solution (at 37° C. for 30 min). The normal brain tissue was stained into dark red, and the ischemic brain tissue was stained into pale white. After being washed with normal saline, the brain slices were quickly arranged in a row from front to back, removed off the residual water on the surface, and photographed. Calculation of area of cerebral infarction: The photos were processed by Image J software, and the corresponding area of left brain and non-infarction area of right brain were calculated according to the formula, so that the percentage of the area of infarction was calculated. […]

[2] = tested on: mice with focal cerebral ischemia-reperfusion injury; experiment: mouse focal cerebral ischemia-reperfusion model (internal carotid artery suture method), area of cerebral infarction by TTC staining; type: in vivo, C57BL/6J mice; conditions: summary; intravenous; cilostazol 10-19.46 mg/kg, (+)-2-borneol 0.54-10 mg/kg
Method: The animals were subjected to evaluation of neurological deficit symptoms and then sacrificed with CO2. The brain was taken out by cutting off head. The olfactory bulb, cerebellum and lower brainstem were removed. The blood on the surface of the brain was washed with normal saline, and the residual water on the surface was removed. The brain was placed at −20° C. for 20 min, then taken out, immediately cut to a coronal section vertically downward at the crossing plane of the line of sight, and sliced backward every 2 mm. The brain slices were incubated in 1% TTC staining solution (at 37° C. for 30 min). The normal brain tissue was stained into dark red, and the ischemic brain tissue was stained into pale white. After being washed with normal saline, the brain slices were quickly arranged in a row from front to back, removed off the residual water on the surface, and photographed. Calculation of area of cerebral infarction: The photos were processed by Image J software, and the corresponding area of left brain and non-infarction area of right brain were calculated according to the formula, so that the percentage of the area of infarction was calculated. The experimental animals were divided into 4 groups, a model group and three groups of compositions of cilostazol/(+)-2-borneol (respectively a group of cilostazol 10 mg/kg+(+)-2-borneol 10 mg/kg in 1:1: a group of cilostazol 15 mg/kg+(+)-2-borneol 5 mg/kg in 3:1; a group of cilostazol 18 mg/kg+(+)-2-borneol 2 mg/kg in 9:1, and each composition was administered at a total amount of 20 mg/kg). After the cerebral ischemia model was established, the animals were assigned to each group in a single-blind manner with equal probability. After reperfusion, the animals were immediately administered intravenously with the drugs once. The animals in the model group were administered with an equal volume of normal saline. The animals were sacrificed 24 hours after cerebral ischemia, and their brains were taken out, stained, and photographed for determining the area of cerebral infarction. Establishment of focal cerebral ischemia-reperfusion model: The mouse focal cerebral ischemia-reperfusion model was established by internal carotid artery suture method. An anesthetized mouse was fixed on an operating table in a supine position. The neck of the mice was cut at the midline, and the subcutaneous tissue was bluntly separated. The right common carotid artery, external carotid artery, and internal carotid artery were separated. […]

plasma protein = conditions: background statement; cited from earlier work
[3] = Example 1, cilostazol 1 mg/kg (p=0.06), (+)-2-borneol 1 mg/kg (p<0.01), composition 1+1 mg/kg (p<0.001), vs model group
[4] = Example 1, cilostazol 1 mg/kg, composition 2 mg/kg (1+1), model group 39.73 ± 7.62
[5] = Example 2, cilostazol 9 mg/kg (p=0.024), (+)-2-borneol 1 mg/kg (p=0.017), composition 9+1 mg/kg (p=0.000)
[6] = Example 2, cilostazol 9 mg/kg, composition 10 mg/kg (9+1), model group 38.25 ± 7.87
[7] = Example 3, cilostazol 18 mg/kg (p=0.001), (+)-2-borneol 1 mg/kg (p=0.002), composition 18+1 mg/kg (p=0.000)
[8] = Example 3, cilostazol 18 mg/kg, composition 19 mg/kg (18+1), model group 40.32 ± 7.65

Compound | effect on the area of cerebral infarction (in words) [1, 3] | Area of cerebral infarction (%) [1, 4] [%] | effect on the area of cerebral infarction (in words) [1, 5] | Area of cerebral infarction (%) [1, 6] [%] | effect on the area of cerebral infarction (in words) [1, 7] | Area of cerebral infarction (%) [1, 8] [%] | area of cerebral infarction of MCAO rats (in words) [1] | neurological deficits of MCAO rats (in words) [1] | area of cerebral infarction in MCAO mice (in words) [2] | neurological deficits in MCAO mice (in words) [2] | binding rate to plasma protein (plasma protein)
CC1(C)C2CCC1(C)C(O)C2 (single isomer, unassigned; (+)) [(+)-2-Borneol] | significantly reduce the area of cerebral infarction | 28.28 ± 8.06 | significantly reduce the area of cerebral infarction | 28.62 ± 9.87 | significantly reduce the area of cerebral infarction | 29.97 ± 7.02 | reduce the area of cerebral infarction | significantly ameliorate the neurological deficits | reduce the area of cerebral infarction | significantly ameliorate the neurological deficits | 
O=C1CCc2cc(OCCCCc3nnnn3C3CCCCC3)ccc2N1 [Cilostazol] | tended to alleviate cerebral ischemic injury, but showed no statistical difference | 33.78 ± 5.74 | significantly reduce the area of cerebral infarction | 30.00 ± 8.43 | significantly reduce the area of cerebral infarction | 27.84 ± 7.50 | reduce the area of cerebral infarction | significantly ameliorate the neurological deficits | reduce the area of cerebral infarction | significantly ameliorate the neurological deficits | about 95%
